These results are taken from ChEMBL document CHEMBL1201862, “PubChem BioAssay data set” (2004).

Holding throughout (experiment): growth of human tumour cells (NCI), 48 h
Assay [1] concerns DU-145.
In assay [2] the test system is CAKI-1.
The subject of assay [3] is RXF 393.
Assay [4] relates to NCI-H460.
For assay [5], the system named is A498.
Assay [6] has as its system SK-OV-3.
In assay [7] the test system is HT-29.
The subject of assay [8] is SF-295.
The subject of assay [9] is NCI/ADR-RES.
Assay [10] has as its system EKVX.
Assay [11] relates to U-251.
For assay [12], the system named is SN12C.
The test system of assay [13] is SK-MEL-2.
Assay [14] has as its system OVCAR-4.
The test system of assay [15] is SF-268.
For assay [16], the system named is HOP-62.
Assay [17] has as its system HOP-92.
Assay [18] concerns SNB-75.
Assay [19] deals with NCI-H522.
Assay [20] relates to T47D.

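Protocol summary: plate cells (96-well), add compound at 5 concentrations, incubate 48 h, interpolate endpoints linearly. The concentration for 50% growth inhibition is given as GI50.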 Active and inactive are the calls of the source. Cut-off read from the data, not from the text of the source: active = GI50 up to about 1.1 µM and inactive = higher. Bounds are passed on as bounds.

As for `CCCCS/C(=C(/C#N)C(N)=O)c1cc2c([nH]1)CCCC2`, the GI50 in assay [1] is 12.1 µM (inactive); in assay [2] it was 14 µM (inactive); in assay [3], 14.9 µM (inactive); in assay [4], 18.7 µM (inactive); in assay [5], 17.6 µM (inactive); in [6] it was 22.9 µM (inactive). Moreover, the GI50 in assay [7] was 4.69 µM (inactive); in [8], 12.4 µM (inactive); in assay [9], 8 µM (inactive); in assay [10], 11.2 µM (inactive); in assay [11] it was 15.7 µM (inactive); in assay [12] it was 23.9 µM (inactive). The GI50 in [13] is 12.1 µM (inactive); in [14], 16.1 µM (inactive); in assay [15], 13.8 µM (inactive); in [16], 21.9 µM (inactive); in assay [17], 17.1 µM (inactive); in [18] it was 15.3 µM (inactive).
For `C=C1C(C)C2C(Cc3ccccc3)NC(=O)C23C(OC(C)=O)C=CC(C)(O)C(=O)C(C)C/C=C/C3C1O` (stereo unspecified), the GI50 was 28.2 µM (inactive) in assay [1]; 0.129 µM (active) in assay [2]; 0.0865 µM (active) in [3]; 0.258 µM (active) in assay [4]; 2.43 µM (inactive) in assay [19]; 0.752 µM (active) in assay [6]. The GI50 was 0.366 µM (active) in assay [8]; > 65.9 µM (inactive) in assay [9]; 1.8 µM (inactive) in [10]; 0.0925 µM (active) in [11]; 39.3 µM (inactive) in assay [12]; 6.22 µM (inactive) in [13]. The GI50 in assay [14] is 3.55 µM (inactive); in assay [15], 1.45 µM (inactive); in [16] it was 0.0678 µM (active); in assay [17], 0.569 µM (active); in assay [18], 0.0333 µM (active).
For the compound `Cc1cc2c3c(coc3c1-c1c(C)cc3c4c(coc14)C(=O)C(O)=C3C(C)C)C(=O)C(O)=C2C(C)C`, the GI50 is 12.8 µM (inactive) in assay [2]; 10.3 µM (inactive) in assay [3]; 4.37 µM (inactive) in assay [4]; 5.92 µM (inactive) in assay [19]; 12.2 µM (inactive) in assay [5]; 19.2 µM (inactive) in assay [6]. Moreover, the GI50 was 3.94 µM (inactive) in assay [7]; 5.37 µM (inactive) in [8]; 2.28 µM (inactive) in assay [10]; 3.66 µM (inactive) in assay [11]; 10.1 µM (inactive) in assay [12]; 4.74 µM (inactive) in [13]. Moreover, the GI50 in assay [14] was 6.79 µM (inactive); in assay [15] it was 5.08 µM (inactive); in assay [16], 11.5 µM (inactive); in [17], 2.62 µM (inactive); in assay [18], 10.9 µM (inactive).
Turning to `COCc1nc(C#N)c(N)o1`, the GI50 in assay [1], in assay [2], in [3], in assay [4], in assay [19] and in assay [20] was > 10 µM (inactive) in each case. Also, the GI50 in assay [6], in [7], in assay [8], in [9], in assay [10] and in [12] was > 10 µM (inactive) throughout. Besides, the GI50 in assay [14], in [15], in assay [16], in assay [17] and in assay [18] was > 10 µM (inactive) throughout.
In the case of `COc1ccc(/C=C2\N=C(SC)N(CN3CCCCC3)C2=O)cc1`, the GI50 was > 100 µM (inactive) in [1]; > 100 µM (inactive) in assay [19]; 42.4 µM (inactive) in assay [5]; > 100 µM (inactive) in assay [6]; > 100 µM (inactive) in assay [7]; > 100 µM (inactive) in assay [8]. The GI50 in assay [9], in assay [10], in assay [11], in [12], in assay [13] and in [14] was > 100 µM (inactive) in each case. The GI50 in [15] is > 100 µM (inactive); in assay [16], 58.7 µM (inactive); in assay [17] it was 0.347 µM (active); in assay [18], > 100 µM (inactive).
Consider `CCNC1=C(NC(=O)CCl)C(=O)c2ccccc2C1=O`, for which the GI50 in [1] was > 10 µM (inactive); in [3], 16.7 µM (inactive); in [4], 23.7 µM (inactive); in assay [19], 15.1 µM (inactive); in assay [20], 22.3 µM (inactive); in assay [6], > 10 µM (inactive). Besides, the GI50 in [7] was > 10 µM (inactive); in assay [8] it was 19.4 µM (inactive); in [9] it was 23.6 µM (inactive); in [10], 16 µM (inactive); in [11] it was 20.3 µM (inactive); in assay [12], 17.9 µM (inactive). In addition, the GI50 in assay [14] was 17 µM (inactive); in [15], 18.1 µM (inactive); in assay [16] it was 16.5 µM (inactive); in assay [17] it was 21 µM (inactive); in assay [18] it was > 10 µM (inactive).
For the compound `COC(=O)[C@@H]1C[C@H]2OC(=O)CC[C@]2(C)O[C@H]1[C@H]1O[C@@](C)(O)CCC[C@H]1C`, the GI50 in assay [1] was > 50 µM (inactive); in assay [2], > 50 µM (inactive); in [3], > 50 µM (inactive); in assay [4] it was > 50 µM (inactive); in assay [19] it was 28.6 µM (inactive); in assay [20], > 50 µM (inactive). Also, the GI50 in assay [6], in [7], in assay [8], in [10], in [11] and in assay [12] was > 50 µM (inactive) in each case. Besides, the GI50 in assay [13], in assay [14], in assay [15] and in assay [16] was > 50 µM (inactive) throughout.
Turning to `CN1CCN(C(=S)N(C)C(=O)c2ccc(Cl)cc2)CC1`, the GI50 in [1], in [3], in assay [4], in assay [19], in [20] and in assay [7] was > 100 µM (inactive) throughout. Also, the GI50 in assay [8], in assay [11], in [12], in [13], in assay [14] and in assay [15] was > 100 µM (inactive) each time. The GI50 in assay [17] and in assay [18] was > 100 µM (inactive) in each case.
In the case of `CC1(c2ccccc2)CCN(C2CC2)CO1` (stereo unspecified), the GI50 in assay [1] is 29.6 µM (inactive); in assay [2], 18.8 µM (inactive); in assay [3], 26.9 µM (inactive); in assay [4], 14.9 µM (inactive); in assay [20], 17.3 µM (inactive); in assay [6] it was > 100 µM (inactive). For the same compound, the GI50 in [7] was 17.9 µM (inactive); in [8] it was > 100 µM (inactive); in assay [9] it was 20.7 µM (inactive); in assay [10], 20.1 µM (inactive); in assay [11], > 100 µM (inactive); in assay [12], 16.8 µM (inactive). Further, the GI50 in assay [13] was > 100 µM (inactive); in assay [14] it was 18.8 µM (inactive); in assay [15], 16.8 µM (inactive); in assay [16], > 100 µM (inactive); in [18] it was 64.9 µM (inactive).
In the case of `NC(CCCCNC(=O)OCc1ccccc1)C(=O)NC(CCCCNC(=O)OCc1ccccc1)C(=O)ON1C(=O)CCC1=O` (stereo unspecified), the GI50 was 52.7 µM (inactive) in assay [3]; > 100 µM (inactive) in [4]; > 100 µM (inactive) in assay [20]; > 100 µM (inactive) in assay [5]; > 100 µM (inactive) in assay [7]; > 100 µM (inactive) in assay [10]. Further, the GI50 in [11] is > 100 µM (inactive); in assay [12], > 100 µM (inactive); in assay [13], > 100 µM (inactive); in assay [16], > 100 µM (inactive); in assay [17], > 100 µM (inactive); in assay [18] it was 27.2 µM (inactive).
On to `C=C1c2nc3ccccc3n2C=C(c2ccccc2)N1c1ccc(C)cc1`, for which the GI50 in assay [1] was > 100 µM (inactive); in [2] it was 32.8 µM (inactive); in assay [3], 59.6 µM (inactive); in [4] it was 56.6 µM (inactive); in [19], 35.1 µM (inactive); in [5] it was 52.7 µM (inactive). Besides, the GI50 in [6] was > 100 µM (inactive); in assay [8], > 100 µM (inactive); in assay [9] it was 37.7 µM (inactive); in assay [10], > 100 µM (inactive); in assay [11], 88.1 µM (inactive); in assay [12], 85.5 µM (inactive). Besides, the GI50 in assay [13] is > 100 µM (inactive); in assay [14], 71.8 µM (inactive); in assay [17] it was 41.4 µM (inactive); in assay [18], > 100 µM (inactive).
For the compound `CCOc1ccc(NCc2cc(OC)c(OC)c(OC)c2)cc1`, the GI50 was 2.57 µM (inactive) in [1]; 0.499 µM (active) in [4]; 0.333 µM (active) in assay [19]; 0.706 µM (active) in assay [6]; 0.366 µM (active) in [7]; 0.306 µM (active) in assay [8]. In addition, the GI50 is 0.324 µM (active) in assay [9]; 34.9 µM (inactive) in [10]; 0.513 µM (active) in assay [11]; 41.6 µM (inactive) in assay [14]; 2.29 µM (inactive) in assay [15]; 0.753 µM (active) in assay [16]. The GI50 in [17] was 5.43 µM (inactive); in assay [18], 1.04 µM (active).
